Experimental data published in article PMC11206203, “Peptide macrocyclisation via intramolecular interception of visible-light-mediated desulfurisation” (Chemical Science, 2024).

Assay: C(sp3)-C(sp3) bond formation by visible-light-mediated Cys desulfurisation: alanyl radical adds to terminal alkene of allylglycine (or O-allyl Ser, pentenylGly, acrylamide); TCEP 50 eq (25 mM), (Ir[dF(CF3)ppy]2(dtbpy))PF6 1 mol%, 450 nm blue LED; unprotected peptides
Settings: 6 M Gdn.HCl, 0.1 M Na2HPO4 pH 7.5-8.0 / MeCN 9:1, 0.5 mM, 25.0 °C

## C[C@@H]1NC(=O)CCC[C@@H](C(N)=O)NC(=O)[C@H](C)NC(=O)[C@H](Cc2ccccc2)NC1=O [Acryloyl-Ala-Phe-Ala-Cys-NH2]
From C=CC(=O)N[C@@H](C)C(=O)N[C@@H](Cc1ccccc1)C(=O)N[C@@H](C)C(=O)N[C@@H](CS)C(N)=O, 15-membered ring, 1.0 h
  ring closure, isolated yield: 0%

## CSCC[C@@H]1NC(=O)[C@@H]2CCCN2C(=O)[C@H](CCCNC(=N)N)NC(=O)[C@@H](NC(C)=O)CCCC[C@@H](C(N)=O)NC(=O)[C@H](Cc2c[nH]cn2)NC1=O [Ac-(allylGly)-Arg-Pro-Met-His-Cys-NH2]
From C=CC[C@H](NC(C)=O)C(=O)N[C@@H](CCCNC(=N)N)C(=O)N1CCC[C@H]1C(=O)N[C@@H](CCSC)C(=O)N[C@@H](Cc1c[nH]cn1)C(=O)N[C@@H](CS)C(N)=O, 20-membered ring
  ring closure, isolated yield: 48%

## CSCC[C@@H]1NC(=O)[C@H](Cc2ccc(O)cc2)NC(=O)[C@H](CC(C)C)NC(=O)[C@@H](NC(C)=O)CCCC[C@@H](C(N)=O)NC1=O [Ac-(allylGly)-Leu-Tyr-Met-Cys-NH2]
From C=CC[C@H](NC(C)=O)C(=O)N[C@@H](CC(C)C)C(=O)N[C@@H](Cc1ccc(O)cc1)C(=O)N[C@@H](CCSC)C(=O)N[C@@H](CS)C(N)=O, 17-membered ring
  ring closure, isolated yield: 69%

## CC[C@H](C)[C@@H]1NC(=O)[C@H](Cc2ccc(O)cc2)NC(=O)[C@@H](N)CCCC[C@@H](C(=O)N2CCC[C@H]2C(=O)N[C@@H](CC(C)C)C(=O)NCC(N)=O)NC(=O)[C@H](CC(N)=O)NC(=O)[C@H](CCC(N)=O)NC1=O [H-Cys-Tyr-Ile-Gln-Asn-(allylGly)-Pro-Leu-Gly-NH2]
From C=CC[C@H](NC(=O)[C@H](CC(N)=O)NC(=O)[C@H](CCC(N)=O)NC(=O)[C@@H](NC(=O)[C@H](Cc1ccc(O)cc1)NC(=O)[C@@H](N)CS)[C@@H](C)CC)C(=O)N1CCC[C@H]1C(=O)N[C@@H](CC(C)C)C(=O)NCC(N)=O, 20-membered ring
  ring closure, isolated yield: 52%

## C[C@@H]1NC(=O)[C@H](Cc2ccccc2)NC(=O)[C@H](C)NC(=O)[C@@H](N)CCCCCC[C@@H](C(N)=O)NC1=O [H-(4-pentenylGly)-Ala-Phe-Ala-Cys-NH2]
From C=CCCC[C@H](N)C(=O)N[C@@H](C)C(=O)N[C@@H](Cc1ccccc1)C(=O)N[C@@H](C)C(=O)N[C@@H](CS)C(N)=O, 19-membered ring, 1.0 h
  ring closure, isolated yield: 32%

## CC[C@H](C)[C@@H]1NC(=O)[C@H](CCCCN)NC(=O)[C@@H](NC(C)=O)CCCC[C@@H](C(N)=O)NC(=O)[C@H](Cc2ccc(O)cc2)NC(=O)[C@H](CO)NC1=O [Ac-Cys-Lys-Ile-Ser-Tyr-(allylGly)-NH2]
From C=CC[C@H](NC(=O)[C@H](Cc1ccc(O)cc1)NC(=O)[C@H](CO)NC(=O)[C@@H](NC(=O)[C@H](CCCCN)NC(=O)[C@H](CS)NC(C)=O)[C@@H](C)CC)C(N)=O, 20-membered ring
  ring closure, isolated yield: 64%

## NC(=O)CC[C@@H]1NC(=O)[C@H](Cc2ccc(O)cc2)NC(=O)[C@H](Cc2ccccc2)NC(=O)[C@@H](NC(=O)[C@@H](N)CC(=O)O)CCCC[C@@H](C(N)=O)NC1=O [H-Asp-(allylGly)-Phe-Tyr-Gln-Cys-NH2]
From C=CC[C@H](NC(=O)[C@@H](N)CC(=O)O)C(=O)N[C@@H](Cc1ccccc1)C(=O)N[C@@H](Cc1ccc(O)cc1)C(=O)N[C@@H](CCC(N)=O)C(=O)N[C@@H](CS)C(N)=O, 17-membered ring
  ring closure, isolated yield: 82%

## CC[C@H](C)[C@@H]1NC(=O)[C@H](CCCCN)NC(=O)[C@H](Cc2ccc(O)cc2)NC(=O)[C@H](CO)NC(=O)[C@H](CC(=O)O)NC(=O)[C@@H](NC(C)=O)CCCC[C@@H](C(N)=O)NC1=O [Ac-(allylGly)-Asp-Ser-Tyr-Lys-Ile-Cys-NH2]
From C=CC[C@H](NC(C)=O)C(=O)N[C@@H](CC(=O)O)C(=O)N[C@@H](CO)C(=O)N[C@@H](Cc1ccc(O)cc1)C(=O)N[C@@H](CCCCN)C(=O)N[C@H](C(=O)N[C@@H](CS)C(N)=O)[C@@H](C)CC, 23-membered ring
  ring closure, isolated yield: 58%

## CC[C@H](C)[C@@H]1NC(=O)[C@@H](NC(C)=O)CCCC[C@@H](C(N)=O)NC(=O)[C@H](CCCNC(=N)N)NC(=O)[C@H](Cc2c[nH]c3ccccc23)NC1=O [Ac-(allylGly)-Ile-Trp-Arg-Cys-NH2]
From C=CC[C@H](NC(C)=O)C(=O)N[C@H](C(=O)N[C@@H](Cc1c[nH]c2ccccc12)C(=O)N[C@@H](CCCNC(=N)N)C(=O)N[C@@H](CS)C(N)=O)[C@@H](C)CC, 17-membered ring
  ring closure, isolated yield: 59%

## CC(C)C[C@@H]1NC(=O)[C@H](CC(=O)O)NC(=O)[C@H](CCC(=O)O)NC(=O)[C@@H](N)CCCC[C@@H](C(N)=O)NC(=O)[C@H](CCC(N)=O)NC(=O)[C@H](Cc2ccc(O)cc2)NC(=O)[C@H](Cc2ccccc2)NC1=O [H-(allylGly)-Glu-Asp-Leu-Phe-Tyr-Gln-Cys-NH2]
From C=CC[C@H](N)C(=O)N[C@@H](CCC(=O)O)C(=O)N[C@@H](CC(=O)O)C(=O)N[C@@H](CC(C)C)C(=O)N[C@@H](Cc1ccccc1)C(=O)N[C@@H](Cc1ccc(O)cc1)C(=O)N[C@@H](CCC(N)=O)C(=O)N[C@@H](CS)C(N)=O, 26-membered ring
  ring closure, isolated yield: 65%

## CC[C@H](C)[C@@H]1NC(=O)[C@H](CCCCN)NC(=O)[C@@H](NC(C)=O)CCCC[C@@H](C(N)=O)NC(=O)[C@H](Cc2ccc(O)cc2)NC(=O)[C@H](CO)NC1=O [Ac-(allylGly)-Lys-Ile-Ser-Tyr-Cys-NH2]
From C=CC[C@H](NC(C)=O)C(=O)N[C@@H](CCCCN)C(=O)N[C@H](C(=O)N[C@@H](CO)C(=O)N[C@@H](Cc1ccc(O)cc1)C(=O)N[C@@H](CS)C(N)=O)[C@@H](C)CC, 20-membered ring
  ring closure, isolated yield: 64%

## CSCC[C@@H]1NC(=O)[C@@H](N)CCCC[C@@H](C(N)=O)NC(=O)[C@H](CCCNC(=N)N)NC(=O)[C@H](CC(C)C)NC(=O)[C@H](Cc2c[nH]c3ccccc23)NC(=O)[C@@H]2CCCN2C1=O [H-(allylGly)-Met-Pro-Trp-Leu-Arg-Cys-NH2]
From C=CC[C@H](N)C(=O)N[C@@H](CCSC)C(=O)N1CCC[C@H]1C(=O)N[C@@H](Cc1c[nH]c2ccccc12)C(=O)N[C@@H](CC(C)C)C(=O)N[C@@H](CCCNC(=N)N)C(=O)N[C@@H](CS)C(N)=O, 23-membered ring
  ring closure, isolated yield: 65%

## CCCC[C@@H]1NC(=O)[C@H](CO)NC(=O)[C@H](CC(=O)O)NC(=O)CNC(=O)[C@H](C(C)C)NC(=O)[C@H](CCC(N)=O)NC(=O)[C@@H](NC(C)=O)CCCC[C@@H](C(N)=O)NC1=O [Ac-(allylGly)-Gln-Val-Gly-Asp-Ser-Nle-Cys-NH2]
From C=CC[C@H](NC(C)=O)C(=O)N[C@@H](CCC(N)=O)C(=O)N[C@H](C(=O)NCC(=O)N[C@@H](CC(=O)O)C(=O)N[C@@H](CO)C(=O)N[C@@H](CCCC)C(=O)N[C@@H](CS)C(N)=O)C(C)C, 26-membered ring
  ring closure, isolated yield: 76%

## CC(=O)N[C@H]1CCCC[C@@H](C(N)=O)NC(=O)[C@H](CCC(N)=O)NC(=O)[C@H](Cc2c[nH]cn2)NC(=O)[C@H](C(C)C)NC1=O [Ac-(allylGly)-Val-His-Gln-Cys-NH2]
From C=CC[C@H](NC(C)=O)C(=O)N[C@H](C(=O)N[C@@H](Cc1c[nH]cn1)C(=O)N[C@@H](CCC(N)=O)C(=O)N[C@@H](CS)C(N)=O)C(C)C, 17-membered ring
  ring closure, isolated yield: 59%

## CC(=O)N[C@H]1CCCC[C@@H](C(N)=O)NC(=O)[C@H](CCCCN)NC(=O)[C@@H]2CCCN2C(=O)[C@H]([C@@H](C)O)NC1=O [Ac-(allylGly)-Thr-Pro-Lys-Cys-NH2]
From C=CC[C@H](NC(C)=O)C(=O)N[C@H](C(=O)N1CCC[C@H]1C(=O)N[C@@H](CCCCN)C(=O)N[C@@H](CS)C(N)=O)[C@@H](C)O, 17-membered ring
  ring closure, isolated yield: 48%

## CSCC[C@@H]1NC(=O)[C@@H]2CCCN2C(=O)[C@H](CCCNC(=N)N)NC(=O)[C@@H](N)CCCC[C@@H](C(N)=O)NC(=O)[C@H](Cc2c[nH]cn2)NC1=O [H-(allylGly)-Arg-Pro-Met-His-Cys-NH2]
From C=CC[C@H](N)C(=O)N[C@@H](CCCNC(=N)N)C(=O)N1CCC[C@H]1C(=O)N[C@@H](CCSC)C(=O)N[C@@H](Cc1c[nH]cn1)C(=O)N[C@@H](CS)C(N)=O, 20-membered ring
  ring closure, isolated yield: 0%

## CC(=O)N[C@H]1CCCC[C@@H](C(N)=O)NC(=O)[C@H](C(C)C)NC(=O)[C@H](CCCNC(=N)N)NC(=O)[C@@H]2CCCN2C(=O)[C@H](Cc2c[nH]cn2)NC(=O)[C@H](CC(N)=O)NC1=O [Ac-(allylGly)-Asn-His-Pro-Arg-Val-Cys-NH2]
From C=CC[C@H](NC(C)=O)C(=O)N[C@@H](CC(N)=O)C(=O)N[C@@H](Cc1c[nH]cn1)C(=O)N1CCC[C@H]1C(=O)N[C@@H](CCCNC(=N)N)C(=O)N[C@H](C(=O)N[C@@H](CS)C(N)=O)C(C)C, 23-membered ring
  ring closure, isolated yield: 32%
